The source of these data is patent US8324250B2 (Hoffmann-La Roche Inc., priority 2009, dated 2012).

The structures appear in SMILES notation.

The assay deals with T1, recombinant human NK3 receptor (Homo sapiens, UniProt P29371).
T1 construct: expressed in transfected cells; host or cells: HEK293 cells (transient expression), membranes
T1 sequence (P29371 1-465): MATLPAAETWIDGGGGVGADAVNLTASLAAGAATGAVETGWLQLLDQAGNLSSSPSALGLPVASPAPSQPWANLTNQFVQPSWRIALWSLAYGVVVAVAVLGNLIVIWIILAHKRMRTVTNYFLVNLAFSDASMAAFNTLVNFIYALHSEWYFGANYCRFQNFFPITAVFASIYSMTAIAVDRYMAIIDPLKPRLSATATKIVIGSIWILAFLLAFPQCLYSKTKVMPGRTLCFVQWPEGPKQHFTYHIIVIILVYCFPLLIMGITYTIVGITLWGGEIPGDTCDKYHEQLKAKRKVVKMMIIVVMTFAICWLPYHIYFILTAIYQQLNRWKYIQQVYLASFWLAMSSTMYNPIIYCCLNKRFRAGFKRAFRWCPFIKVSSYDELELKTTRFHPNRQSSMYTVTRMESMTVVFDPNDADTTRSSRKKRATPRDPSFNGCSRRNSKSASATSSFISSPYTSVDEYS
In words: [3H]SR142801 competition binding assay. As to conditions: membranes from HEK293 cells transiently expressing recombinant human NK3 receptor; [3H]SR142801 radioligand; 75 min at RT; Ki by Cheng-Prussoff; read-out: Data Ki (hNK-3 receptor affinity). The method, then: [^3H]SR142801 Competition Binding Assay
hNK3 receptor binding experiment were performed using [^3H]SR142801 (Catalog No. TRK1035, specific activity: 74.0 Ci/mmol, Amersham, GE Healthcare UK limited, Buckinghamshire, UK) and membrane isolated from HEK293 cells transiently expressing recombinant human NK3 receptor. After thawing, the membrane homogenates were centrifuged at 48,000×g for 10 min at 4° C., the pellets were resuspended in the 50 mM Tris-HCl, 4 mM MnCl2, 1 μM phosphoramidon, 0.1% BSA binding buffer at pH 7.4 to a final assay concentration of 5 μg protein/well. […] At the end of the incubation, membranes were filtered onto unitfilter (96-well white microplate with bonded GF/C filter preincubated 1 h in 0.3% PEI+0.3% BSA, Packard BioScience, Meriden, Conn.) with a Filtermate 196 harvester (Packard BioScience) and washed 4 times with ice-cold 50 mM Tris-HCl, pH 7.4 buffer. Nonspecific binding was measured in the presence of 10 μM SB222200 for both radioligands. The radioactivity on the filter was counted (5 min) on a Packard Top-count microplate scintillation counter with quenching correction after addition of 45 μl of microscint 40 (Can berra Packard S. A., Zurich, Switzerland) and shaking for 1 h. Inhibition curves were fitted according to the Hill equation: y=100/(1+(x/IC50)^nH), where nH=slope factor using Excel-fit 4 software (Microsoft). IC50 values were derived from the inhibition curve and the affinity constant (Ki) values were calculated using the Cheng-Prussoff equation Ki═IC50/(1+[L]/KD) where [L] is the concentration of radioligand and KD is its dissociation constant at the receptor, derived from the saturation isotherm. All experiments were performed in duplicate and the mean±standard error (SEM) of the individual Ki values was calculated.
Regarding `C[C@H](NC(=O)C1(c2ccccc2)CCN(C(=O)c2ccc(N3CCCCC3)cc2)CC1)c1ccccc1` [Example 11, 4-Phenyl-1-(4-piperidin-1-yl-benzoyl)-piperidine-4-carboxylic acid ((S)-1-phenyl-ethyl)-amide], the Ki (as a rule, a dissociation constant, usually derived from enzyme kinetics or from competition with a known ligand) came to 44 nM.
Consider `C[C@H](NC(=O)C1(c2ccccc2)CCN(C(=O)c2ccc(-n3cncn3)nc2)CC1)c1ccccc1` [Example 39, 4-Phenyl-1-(6-[l,2,4]triazol-1-yl-pyridine-3-carbonyl)-piperidine-4-carboxylic acid ((S)-1-phenyl-ethyl)-amide], for which the inhibition constant Ki stood at 80.8 nM.
For `Cc1nc(-c2ccc(C(=O)N3CCC(C(=O)N[C@@H](C)c4ccc(F)cc4)(c4ccc(F)cc4)CC3)cc2)no1` [Example 168, 4-(4-Fluoro-phenyl)-1-[4-(5-methyl-[1,2,4]oxadiazol-3-yl)-benzoyl]-piperidine-4-carboxylic acid [(S)-1-(4-fluoro-phenyl)-ethyl]-amide], the Ki is 36 nM.
Consider `Cc1noc(-c2ccc(C(=O)N3CCC(C(=O)N[C@@H](C)c4cccc(F)c4)(c4ccc(F)cc4)CC3)cc2)n1` [Example 161, 4-(4-Fluoro-phenyl)-1-[4-(3-methyl-[1,2,4]oxadiazol-5-yl)-benzoyl]-piperidine-4-carboxylic acid [(S)-1-(3-fluoro-phenyl)-ethyl]-amide], for which the Ki is 4.6 nM.
With `C[C@H](NC(=O)C1(c2ccccc2)CCN(C(=O)c2ccc(N3CCN(C)CC3)cc2)CC1)c1ccccc1` [Example 14, 1-[4-(4-Methyl-piperazin-1-yl)-benzoyl]-4-phenyl-piperidine-4-carboxylic acid ((S)-l-phenyl-ethyl)-amide], the Ki came out at 98.1 nM.
Consider `C[C@H](NC(=O)C1(c2ccc(F)cc2)CCN(C(=O)C2CCN(c3ccc(C#N)cn3)CC2)CC1)c1cccc(F)c1` [Example 155, 1-(5′-Cyano-3,4,5,6-tetrahydro-2H-[1,2′]bipyridinyl-4-carbonyl)-4-(4-fluoro-phenyl)-piperidine-4-carboxylic acid [(S)-1-(3-fluoro-phenyl)-ethyl]-amide], for which the Ki was determined as 75 nM.
For `C[C@H](NC(=O)C1(c2ccccc2)CCN(C(=O)N2CCC(N3CCCCC3=O)CC2)CC1)c1ccccc1` [Example 216, 1-(2-Oxo-[1,4′]bipiperidinyl-1′-carbonyl)-4-phenyl-piperidine-4-carboxylic acid ((S)-1-phenyl-ethyl)-amide], the Ki was found to be 17.2 nM.
For `CC(C)C(NC(=O)C1(c2ccc(F)cc2)CCN(C(=O)c2ccc(N3CCCCC3=O)cc2)CC1)c1ccc(F)cc1` (centres unmarked) [Example 171, 4-(4-Fluoro-phenyl)-1-[4-(2-oxo-piperidin-1-yl)-benzoyl]-piperidine-4-carboxylic acid [1-(4-fluoro-phenyl)-2-methyl-propyl]-amide], the Ki worked out at 54 nM.
Take `Cc1nc(-c2ccc(C(=O)N3CCC(C(=O)N[C@@H](C)c4ccc(F)cc4)(c4ccccc4)CC3)cc2)no1` [Example 77, 1-[4-(5-Methyl-[1,2,4]oxa-diazol-3-yl)-benzoyl]-4-phenyl-piperidine-4-carboxylic acid [(S)-1-(4-fluoro-phenyl)-ethyl]-amide]: the inhibitory constant (Ki) came out at 12.2 nM.
Consider `C[C@H](NC(=O)C1(c2ccccc2)CCN(C(=O)c2ccc(-c3ncccn3)cc2)CC1)c1ccccc1` [Example 47, 4-Phenyl-1-(4-pyrimidin-2-yl-benzoyl)-piperidine-4-carboxylic acid ((S)-1-phenyl-ethyl)-amide], for which the inhibition constant Ki turned out to be 24.7 nM.
As to `Cc1noc(-c2ccc(C(=O)N3CCC(C(=O)N[C@@H](C)c4ccc(F)cc4)(c4ccc(F)cn4)CC3)cc2)n1` [Example 126, 5-Fluoro-1′-[4-(3-methyl-[1,2,4]oxadiazol-5-yl)-benzoyl]-2′,3′,5′,6′-tetrahydro-1′H-[2,4′]bipyridinyl-4′-carboxylic acid [(S)-1-(4-fluoro-phenyl)-ethyl]-amide], the Ki came to 93.7 nM.
For `C[C@H](NC(=O)C1(c2ccc(F)cc2)CCN(C(=O)c2ccc(N3CCS(=O)(=O)CC3)cc2)CC1)C1CCCCC1` [Example 91, 1-[4-(1,1-Dioxo-1λ6 thiomor-pholin-4-yl)-benzoyl]-4-(4-fluoro-phenyl)-piperidine-4-carboxylic acid ((S)-1-cyclohexyl-ethyl)-amide] the value was 7.6 nM; for `O=C(c1ccc(-c2ccc(F)cc2)cc1)N1CCC(C(=O)N[C@@H](CO)c2ccc(F)cc2)(c2ccc(F)cc2)CC1` [Example 151, 1-(4′-Fluoro-biphenyl-4-carbonyl)-4-(4-fluoro-phenyl)-piperidine-4-carboxylic acid [(R)-1-(4-fluoro-phenyl)-2-hydroxy-ethyl]-amide], 11.5 nM.
As for `C[C@H](NC(=O)C1(c2ccc(F)cc2)CCN(C(=O)c2ccc(-c3ccc(F)cc3)cc2)CC1)c1cccc(F)c1` [Example 129, 1-(4′-Fluoro-biphenyl-4-carbonyl)-4-(4-fluoro-phenyl)-piperidine-4-carboxylic acid [(S)-1-(3-fluoro-phenyl)-ethyl]-amide], the Ki was determined as 12 nM.
For `C[C@H](NC(=O)C1(C2CCCC2)CCN(C(=O)c2ccc(-c3ccc(F)cc3)cc2)CC1)c1ccc(F)cc1` [Example 110, 4- Cyclopentyl-1-(4′-fluoro-biphenyl-4-carbonyl)-piperidine-4-carboxylic acid [(S)-1-(4-fluoro-phenyl)-ethyl]-amide] the value was 52.2 nM.
On to `Cc1noc(-c2ccc(C(=O)N3CCC(C(=O)N[C@@H](C)c4ccc(Cl)cc4)(c4ccccc4)CC3)cc2)n1` [Example 104, 1-[4-(3-Methyl-[1,2,4]oxa-diazol-5-yl)-benzoyl]-4-phenyl-piperidine-4-carboxylic acid [(S)-1-(4-chloro-phenyl)-ethyl]-amide], for which the Ki stood at 11.2 nM.
Next, `O=C(c1ccc(-c2ccc(F)cc2)cc1)N1CCC(C(=O)NNc2ccc(F)c(F)c2)(c2ccc(F)cc2)CC1` [Example 191, 1-(4′-Fluoro-biphenyl-4-carbonyl)-4-(4-fluoro-phenyl)-piperidine-4-carboxylic acid N′-(3,4-difluoro-phenyl)-hydrazide]: 17 nM; `C[C@H](NC(=O)C1(c2ccccc2)CCN(C(=O)c2ccc(-c3ccc(N)cc3)cc2)CC1)c1ccccc1` [Example 64, 1-(4′-Amino-biphenyl-4-carbonyl)-4-phenyl-piperidine-4-carboxylic acid ((S)-1-phenyl-ethyl)-amide]: 72.7 nM.
In the case of `Cc1noc(-c2ccc(C(=O)N3CCC(C(=O)N[C@@H](C)c4ccc(F)cc4)(c4ccccc4)CC3)cn2)n1` [Example 82, 1-[6-(3-Methyl-[1,2,4]oxa-diazol-5-yl)-pyridine-3-carbonyl]-4-phenyl-piperidine-4-carboxylic acid [(S)-1-(4-fluoro-phenyl)-ethyl]-amide], the Ki was found to be 5.3 nM.
For `Cc1noc(-c2ccc(C(=O)N3CCC(C(=O)N[C@@H](C)c4ccc(F)cc4)(C4CCCC4)CC3)cc2)n1` [Example 111, 4- Cyclopentyl-1-[4-(3-methyl-[1,2,4]oxa-diazol-5-yl)-benzoyl]-piperidine-4-carboxylic acid [(S)-1-(4-fluoro-phenyl)-ethyl]-amide] the value was 39.8 nM; for `CC(=O)c1ccc(-c2ccc(C(=O)N3CCC(C(=O)N[C@@H](C)c4ccccc4)(c4ccccc4)CC3)cc2)cc1` [Example 59, 1-(4′-Acetyl-biphenyl-4-carbonyl)-4-phenyl-piperidine-4-carboxylic acid ((S)-1-phenyl-ethyl)-amide], 37 nM; for `CC(C)CC1(C(=O)N[C@@H](C)c2ccc(F)cc2)CCN(C(=O)c2ccc(-c3ccc(F)cc3)cc2)CC1` [Example 122, 1-(4′-Fluoro-biphenyl-4-carbonyl)-4-isobutyl-piperidine-4-carboxylic acid [(S)-1-(4-fluoro-phenyl)-ethyl]-amide], 25.7 nM.
Take `C[C@H](NC(=O)C1(c2ccccc2)CCN(C(=O)N2CCC(c3ccccc3)CC2)CC1)c1ccccc1` [Example 204, 4-Phenyl-1-(4-phenyl-piperidine-1-carbonyl)-piperidine-4-carboxylic acid ((S)-1-phenyl-ethyl)-amide]: the Ki worked out at 79.2 nM.
